Structures can show the parent of a compound that is named as a salt. Where two headings read alike, the source gives them in different places.

This note sets out measurements from patent US10738057B2, “Tertiary alcohols as PI3K-γ inhibitors” (Incyte Corporation, priority 2017, dated 2020).

Assay [1] concerns Phosphorylated Ribosomal Protein S6 (RPS6) in THP-1 cells. Put plainly: THP-1 RPS6 ELISA assay. As to conditions: serum starved, 2 h compound, 10 nM MCP-1 for 15 min, phospho-RPS6 ELISA, read-out: PI3Kγ_THP1_RPS6_ELISA IC50. The format is cell-based, Human. As for the experimental part: Example A. THP-1 RPS6 ELISA Assay
To measure the Phosphorylated Ribosomal Protein S6 (RPS6) in cell lysates, THP-1 cells (Human Acute Monocytic Leukemia) are purchased from ATCC (Manassas, Va.) and maintained in RPMI with 10% FBS (Gibco/Life Technologies, Carlsbad, Calif.). For the assay, THP-1 cells are serum starved overnight in RPMI, then plated in RPMI (2×10^5 cells/well in 90 μL) into 96-well flat-bottom tissue culture treated plates (Corning, Corning, N.Y.), in the presence or absence of a concentration range of test compounds. Covered plates are incubated for 2 hours at 37° C., 5% CO2 then treated with or without 10 nM MCP-1 (MYBioSource, San Diego, Calif.) for 15 minutes at 37° C., 5% CO2. Plates are centrifuged at 1600 RPM and supernatants are removed. Cells are lysed in Lysis Buffer (Cell Signaling, Danvers, Mass.) with Protease Inhibitor (Calbiochem/EMD, Germany), PMSF (Sigma, St Louis Mo.), HALTS (Thermo Fisher, Rockford, Ill.) for 30 min on wet ice. Cell lysates are frozen at −80° C. before testing. The lysates are tested in the Human/Mouse/Rat Phospho-RPS6 ELISA (R&D Systems, Inc. Minn, Minn.). The plate is measured using a microplate reader (SpectraMax M5—Molecular Devices, LLC Sunnyvale, Calif.) set to 450 nm with a wavelength correction of 540. IC50 determination is performed by fitting the curve of inhibitor percent inhibition versus the log of the inhibitor concentration using the GraphPad Prism 5.0 software.
In general terms: In an ELISA, binding on a coated surface is turned into a signal by an enzyme label.

In assay [2] the target is PI3Kδ (p110δ/p85α) Recombinant Human Protein (Homo sapiens (Human), UniProt O00329). Nature of the assay: PI3Kδ scintillation proximity assay. The format is biochemical. As to conditions: 20 μM PIP2, 2 μM ATP, 3.4 nM PI3Kδ, 120 min, room temperature; read-out: PI3Kδ IC50. As for the experimental part: PI3Kδ Scintillation Proximity Assay
[γ-^33P]ATP (10 mCi/mL) and Wheat Germ Agglutinin (WGA) YSi SPA Scintillation Beads was purchased from PerkinElmer (Waltham, Mass.). […] PI3Kδ (p110δ/p85α) Recombinant Human Protein was purchased from Eurofins (St Charles, Mo.). ATP, MgCl2, DTT, EDTA, MOPS and CHAPS were purchased from SigmaAldrich (St. Louis, Mo.).
The kinase reaction was conducted in polystyrene 384-well Greiner Bio-one white plate from Thermo Fisher Scientific in a final volume of 25 μL. Inhibitors were first diluted serially in DMSO and added to the plate wells before the addition of other reaction components. The final concentration of DMSO in the assay was 2%. The PI3Kδ assay was carried out at room temperature in 20 mM MOPS, pH 6.7, 10 mM MgCl2, 5 mM DTT and CHAPS 0.03%. Reactions were initiated by the addition of ATP, the final reaction mixture consisted of 20 μM PIP2, 2 μM ATP, 0.5 μCi [γ-^33P] […] The final concentration of SPA beads is 1.0 mg/mL. After the plate sealing, plates were shaken overnight at room temperature and centrifuged at 1500 rpm for 10 min, the radioactivity of the product was determined by scintillation counting on Topcount (PerkinElmer). IC50 determination was performed by fitting the curve of percent of the solvent control activity versus the log of the inhibitor concentration using the GraphPad Prism 6.0 software.
(In general: Scintillation proximity formats need no separation of bound from free tracer.)

Assay [3] deals with PI3Kγ (p110γ) Recombinant Human Protein (Homo sapiens (Human), UniProt P48736). Nature of the assay: PI3K-γ scintillation proximity assay. Format: biochemical. The settings on record: 20 μM PIP2, 2 μM ATP, 13 nM PI3Kγ, 120 min, room temperature. The text has this: Example B. PI3K-γ Scintillation Proximity Assay
[γ-^33P]ATP (10 mCi/mL) and Wheat Germ Agglutinin (WGA) YSi SPA Scintillation Beads was purchased from PerkinElmer (Waltham, Mass.). Lipid kinase substrate, D-myo-Phosphatidylinositol 4,5-bisphosphate (PtdIns(4,5)P2)D (+)-sn-1,2-di-O-octanoylglyceryl, 3-O-phospho linked (PIP2), CAS 204858-53-7, was purchased from Echelon Biosciences (Salt Lake City, Utah). PI3Kγ (p110γ) Recombinant Human Protein was purchased from Life technology (Grand Island, N.Y.). ATP, MgCl2, DTT, EDTA, MOPS and CHAPS were purchased from SigmaAldrich (St. Louis, Mo.).
The kinase reaction was conducted in polystyrene 384-well Greiner Bio-one white plate from Thermo Fisher Scientific in a final volume of 25 μL. Inhibitors were first diluted serially in DMSO and added to the plate wells before the addition of other reaction components. The final concentration of DMSO in the assay was 2%. The PI3Kγ assay was carried out at room temperature in 20 mM MOPS, pH 6.7, 10 mM MgCl2, 5 mM DTT and CHAPS 0.03%. Reactions were initiated by the addition of ATP, the final reaction mixture consisted of 20 μM PIP2, 2 μM ATP, 0.5 μCi [γ-^33P] ATP, 13 nM PI3Kγ. Reactions were incubated for 120 min and terminated by the addition of 40 μL SPA beads suspended in quench buffer: 163 mM potassium phosphate pH 7.8, 20% glycerol, 25 mM EDTA. The final concentration of SPA beads is 1.0 mg/mL. After the plate sealing, plates were shaken overnight at room temperature and centrifuged at 1500 rpm for 10 min, the radioactivity of the product was determined by scintillation counting on Topcount (Perkin-Elmer). IC50 determination was performed by fitting the curve of percent of the solvent control activity versus the log of the inhibitor concentration using the GraphPad Prism 6.0 software.

Setting [4] is: Homo sapiens, THP-1, THP-1 cells.

PI3Kδ (p110δ/p85α) Recombinant Human Protein, sequence (O00329 whole entry): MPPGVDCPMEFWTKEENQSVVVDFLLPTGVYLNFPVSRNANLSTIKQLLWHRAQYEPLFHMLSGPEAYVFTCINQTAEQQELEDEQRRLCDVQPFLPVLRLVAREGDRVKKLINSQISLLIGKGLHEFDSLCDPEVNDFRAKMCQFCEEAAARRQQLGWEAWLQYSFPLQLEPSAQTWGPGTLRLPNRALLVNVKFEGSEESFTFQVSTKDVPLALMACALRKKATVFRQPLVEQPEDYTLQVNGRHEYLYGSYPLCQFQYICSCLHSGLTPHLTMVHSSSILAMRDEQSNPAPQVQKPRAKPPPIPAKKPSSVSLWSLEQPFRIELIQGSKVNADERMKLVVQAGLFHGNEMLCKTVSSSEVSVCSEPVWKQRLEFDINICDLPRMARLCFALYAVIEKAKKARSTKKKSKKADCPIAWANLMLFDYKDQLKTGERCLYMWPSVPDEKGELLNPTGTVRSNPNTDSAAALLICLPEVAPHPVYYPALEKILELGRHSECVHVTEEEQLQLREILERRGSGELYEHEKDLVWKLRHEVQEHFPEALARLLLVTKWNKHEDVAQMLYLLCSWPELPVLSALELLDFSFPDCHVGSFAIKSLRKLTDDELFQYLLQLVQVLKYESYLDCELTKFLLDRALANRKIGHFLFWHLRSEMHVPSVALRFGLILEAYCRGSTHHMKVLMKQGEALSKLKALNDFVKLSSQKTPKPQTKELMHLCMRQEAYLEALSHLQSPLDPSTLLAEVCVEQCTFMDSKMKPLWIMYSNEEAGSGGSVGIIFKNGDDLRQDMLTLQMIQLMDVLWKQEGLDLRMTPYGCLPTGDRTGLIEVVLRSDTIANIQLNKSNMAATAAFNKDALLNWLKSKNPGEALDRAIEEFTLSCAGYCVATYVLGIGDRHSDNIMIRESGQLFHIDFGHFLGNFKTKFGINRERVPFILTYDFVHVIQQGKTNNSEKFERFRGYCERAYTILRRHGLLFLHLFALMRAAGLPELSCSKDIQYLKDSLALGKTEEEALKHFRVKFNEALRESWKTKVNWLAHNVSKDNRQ
PI3Kδ (p110δ/p85α) Recombinant Human Protein, sequence (P27986 whole entry partner): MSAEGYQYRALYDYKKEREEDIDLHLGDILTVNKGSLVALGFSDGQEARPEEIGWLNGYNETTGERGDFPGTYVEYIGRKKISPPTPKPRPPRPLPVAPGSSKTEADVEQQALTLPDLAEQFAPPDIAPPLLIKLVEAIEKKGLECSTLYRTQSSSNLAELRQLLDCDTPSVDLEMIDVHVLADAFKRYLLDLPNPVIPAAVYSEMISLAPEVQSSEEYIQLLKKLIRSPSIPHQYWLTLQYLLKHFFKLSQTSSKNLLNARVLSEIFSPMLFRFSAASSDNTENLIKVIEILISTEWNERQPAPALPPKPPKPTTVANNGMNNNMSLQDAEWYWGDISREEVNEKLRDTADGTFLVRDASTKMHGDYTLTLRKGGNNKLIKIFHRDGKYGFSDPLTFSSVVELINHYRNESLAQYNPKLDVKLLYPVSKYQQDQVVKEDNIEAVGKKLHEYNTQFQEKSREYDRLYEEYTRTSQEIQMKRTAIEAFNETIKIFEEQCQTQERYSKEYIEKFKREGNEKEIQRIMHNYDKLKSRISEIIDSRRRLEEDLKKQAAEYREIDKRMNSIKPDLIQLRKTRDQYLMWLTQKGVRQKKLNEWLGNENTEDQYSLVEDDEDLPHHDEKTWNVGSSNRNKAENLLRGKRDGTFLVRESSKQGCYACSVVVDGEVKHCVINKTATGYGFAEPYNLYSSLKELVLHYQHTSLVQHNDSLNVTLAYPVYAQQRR
PI3Kγ (p110γ) Recombinant Human Protein, sequence (P48736 whole entry): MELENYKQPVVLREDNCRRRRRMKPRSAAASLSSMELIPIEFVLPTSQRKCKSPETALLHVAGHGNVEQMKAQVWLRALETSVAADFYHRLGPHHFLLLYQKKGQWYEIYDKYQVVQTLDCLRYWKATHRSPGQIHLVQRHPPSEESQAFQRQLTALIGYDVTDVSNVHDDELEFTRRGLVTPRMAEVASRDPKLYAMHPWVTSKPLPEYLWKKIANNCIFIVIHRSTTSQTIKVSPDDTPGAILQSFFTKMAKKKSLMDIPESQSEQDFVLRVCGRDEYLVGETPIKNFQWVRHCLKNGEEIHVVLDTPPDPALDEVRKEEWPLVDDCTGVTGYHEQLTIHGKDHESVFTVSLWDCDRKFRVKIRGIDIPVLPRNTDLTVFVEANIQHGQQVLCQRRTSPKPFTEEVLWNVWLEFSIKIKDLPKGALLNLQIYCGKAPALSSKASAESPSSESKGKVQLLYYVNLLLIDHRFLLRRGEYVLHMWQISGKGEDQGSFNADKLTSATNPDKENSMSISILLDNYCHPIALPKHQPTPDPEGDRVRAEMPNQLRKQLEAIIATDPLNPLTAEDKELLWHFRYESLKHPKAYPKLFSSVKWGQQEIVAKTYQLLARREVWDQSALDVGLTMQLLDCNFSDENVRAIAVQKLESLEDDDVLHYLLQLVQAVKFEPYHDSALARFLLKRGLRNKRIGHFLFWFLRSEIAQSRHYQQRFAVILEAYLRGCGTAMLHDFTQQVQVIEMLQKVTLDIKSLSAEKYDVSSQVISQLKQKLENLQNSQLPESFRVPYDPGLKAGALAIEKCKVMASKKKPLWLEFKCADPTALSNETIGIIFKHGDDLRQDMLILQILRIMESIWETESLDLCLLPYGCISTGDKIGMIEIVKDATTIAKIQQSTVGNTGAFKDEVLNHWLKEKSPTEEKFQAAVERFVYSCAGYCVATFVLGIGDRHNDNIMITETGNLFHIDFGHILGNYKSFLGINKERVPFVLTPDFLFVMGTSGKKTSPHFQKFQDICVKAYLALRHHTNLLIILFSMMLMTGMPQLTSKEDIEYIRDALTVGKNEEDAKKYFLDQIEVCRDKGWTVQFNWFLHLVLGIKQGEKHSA

Take `Cc1ccc(C(C)(O)C(F)(F)F)cc1-c1cnc2c(N)nc(-c3ccnc(CO)c3)cn12` (single isomer, unassigned) [Example 11, 2-(3-(8-amino-6-(2-(hydroxymethyl)pyridin-4-yl)imidazo[1,2-a]pyrazin-3-yl)-4-methylphenyl)-1,1,1-trifluoropropan-2-ol]: the IC50 (commonly the concentration needed to halve the response being measured) in assay [1] (setting [4]) is 100 to 500 nM; in assay [2] it was less than 100 nM; in assay [3], less than 100 nM.
Take `Cc1ccc(C(C)(O)C(F)(F)F)cc1-c1cnc2c(N)nc(-c3ccnc(CO)c3)cn12` (single isomer, unassigned) [Example 12, 2-(3-(8-amino-6-(2-(hydroxymethyl)pyridin-4-yl)imidazo[1,2-a]pyrazin-3-yl)-4-methylphenyl)-1,1,1-trifluoropropan-2-ol]: the IC50 in assay [1] (THP-1 cells), in assay [2] and in assay [3] was less than 100 nM each time.
With `CNCCC(O)(c1ccc(C)c(-c2cnc3c(N)nc(C(F)(F)F)cn23)c1)C(F)(F)F` (single isomer, unassigned) [Example 15, 2-(3-(8-Amino-6-(trifluoromethyl)imidazo[1,2-a]pyrazin-3-yl)-4-methylphenyl)-1,1,1-trifluoro-4-(methylamino)butan-2-ol], the 50% inhibitory concentration (IC50) in assay [1] (THP-1 cells) is 100 to 500 nM; in assay [2], 100 to 500 nM; in assay [3], less than 100 nM.
For the molecule `CNCCC(O)(c1ccc(C)c(-c2cnc3c(N)nc(C(F)(F)F)cn23)c1)C(F)(F)F` (single isomer, unassigned) [Example 16, 2-(3-(8-Amino-6-(trifluoromethyl)imidazo[1,2-a]pyrazin-3-yl)-4-methylphenyl)-1,1,1-trifluoro-4-(methylamino)butan-2-ol], the IC50 in assay [1] (THP-1 cells) was 500 to 1000 nM; in assay [2] it was 100 to 500 nM; in assay [3], less than 100 nM.
Take `[2H]C([2H])([2H])n1nccc1-c1cn2c(-c3cc(C(C)(O)C(F)F)ccc3C)cnc2c(N)n1` (single isomer, unassigned) [Example 25, 2-(3-(8-Amino-6-(1-(methyl-d3)-1H-pyrazol-5-yl)imidazo[1,2-a]pyrazin-3-yl)-4-methylphenyl)-1,1-difluoropropan-2-ol trifluoroacetate salt]: the concentration for half-maximal inhibition (IC50) is 100 to 500 nM in assay [1] (setting [4]), 100 to 500 nM in assay [2] and less than 100 nM in assay [3].
Consider `Cc1ccc(C(C)(O)C(F)F)cc1-c1cnc2c(N)nc(C(F)(F)F)cn12` (single isomer, unassigned) [Example 26, 2-(3-(8-Amino-6-(trifluoromethyl)imidazo[1,2-a]pyrazin-3-yl)-4-methylphenyl)-1,1-difluoropropan-2-ol], for which the half-maximal inhibitory concentration (IC50) in assay [1] (THP-1 cells) is 500 to 1000 nM; in assay [2], 500 to 2000 nM; in assay [3] it was less than 100 nM.
On to `Cc1ccc(C(C)(O)C(F)F)cc1-c1cnc2c(N)nc(C(F)(F)F)cn12` (single isomer, unassigned) [Example 27, 2-(3-(8-Amino-6-(trifluoromethyl)imidazo[1,2-a]pyrazin-3-yl)-4-methylphenyl)-1,1-difluoropropan-2-ol], for which the IC50 in assay [1] (THP-1 cells) is 100 to 500 nM; in assay [2], 100 to 500 nM; in assay [3], less than 100 nM.
In the case of `Cc1ccc(C(C)(O)C(F)F)cc1-c1cnc2c(N)nc(-c3ccnn3C)cn12` (single isomer, unassigned) [Example 29, 2-(3-(8-Amino-6-(1-methyl-1H-pyrazol-5-yl)imidazo[1,2-a]pyrazin-3-yl)-4-methylphenyl)-1,1-difluoropropan-2-ol 1.2 trifluoroacetate salt], the IC50 in assay [1] (setting [4]) is 100 to 500 nM; in assay [2], 100 to 500 nM; in assay [3] it was less than 100 nM.
For `Cc1ccc(C(C)(O)C(F)F)cc1-c1cnc2c(N)nc(-c3ccnn3C)cn12` (single isomer, unassigned) [Example 30, 2-(3-(8-Amino-6-(1-methyl-1H-pyrazol-5-yl)imidazo[1,2-a]pyrazin-3-yl)-4-methylphenyl)-1,1-difluoropropan-2-ol], the IC50 in assay [1] (THP-1 cells) is 100 to 500 nM; in assay [2], 100 to 500 nM; in assay [3], less than 100 nM.
For the molecule `Cc1ccc(C(C)(O)C(F)F)cc1-c1cnc2c(N)nc(-c3ccnc(CO)c3)cn12` (single isomer, unassigned) [Example 44, 2-(3-(8-Amino-6-(2-(hydroxymethyl)pyridin-4-yl)imidazo[1,2-a]pyrazin-3-yl)-4-methylphenyl)-1,1-difluoropropan-2-ol], the 50% inhibitory concentration (IC50) in assay [1] (setting [4]), in assay [2] and in assay [3] was less than 100 nM in each case.
As to `Cc1ccc(C(C)(O)C(F)F)cc1-c1cnc2c(N)nc(-c3ccnc(CO)c3)cn12` (single isomer, unassigned) [Example 45, 2-(3-(8-Amino-6-(2-(hydroxymethyl)pyridin-4-yl)imidazo[1,2-a]pyrazin-3-yl)-4-methylphenyl)-1,1-difluoropropan-2-ol], the IC50 in assay [1] (THP-1 cells) was 100 to 500 nM; in assay [2] it was less than 100 nM; in assay [3], less than 100 nM.
With `Cc1ccc(C(C)(O)C(F)F)cc1-c1cnc2c(N)nc(-c3ccnn3C)nn12` (single isomer, unassigned) [Example 51, 2-(3-(4-Amino-2-(1-methyl-1H-pyrazol-5-yl)imidazo[2,1-f][1,2,4]triazin-7-yl)-4-methylphenyl)-1,1-difluoropropan-2-ol trifluoroacetate salt], the IC50 in assay [1] (setting [4]), in assay [2] and in assay [3] was less than 100 nM throughout.
Regarding `Cc1ncc(-c2nc(N)c3ncc(-c4cc(C(C)(O)C(F)F)ccc4C)n3n2)o1` (single isomer, unassigned) [Example 52, 2-(3-(4-Amino-2-(2-methyloxazol-5-yl)imidazo[2,1-f][1,2,4]triazin-7-yl)-4-methylphenyl)-1,1-difluoropropan-2-ol trifluoroacetate salt], the IC50 in assay [1] (setting [4]) was 100 to 500 nM; in assay [2], 100 to 500 nM; in assay [3], less than 100 nM.
`Cc1ccc(C(C)(O)C(F)(F)C(F)(F)F)cc1-c1cnc2c(N)nc(C(F)(F)F)cn12` (single isomer, unassigned) [Example 60, 2-(3-(8-Amino-6-(trifluoromethyl)imidazo[1,2-a]pyrazin-3-yl)-4-methylphenyl)-3,3,4,4,4-pentafluorobutan-2-ol]: the figures for the IC50 in assay [1] (setting [4]), in assay [2] and in assay [3] were more than 1000 nM, 500 to 2000 nM and less than 100 nM, respectively.
